In article PMC3312789 (Journal of Immunology (Baltimore, Md. : 1950), 2008):
Where no end group is shown, it is not given here.

What was measured:
Test in all cases: In vitro HLA-DR peptide binding assay
HLA DRB1*0405 = HLA DRB1*0405 (Homo sapiens, UniProt P01903+P01911, A100R/A169T/D86S/F76Y/I96L/K127E/L162R/M171V/N62H/P40V/Q125Y/R42H/S133A/S149N/S66Y/V115G/V209L/W38E)
HLA DRB1*1501 = HLA DRB1*1501 (Homo sapiens, UniProt P01903+P01911)
HLA DRB1*0101 = HLA DRB1*0101 (Homo sapiens, UniProt P01903+P01911, A100R/D57E/F55L/F60I/F76Y/I96L/L162R/M171V/P40L/Q125E/R42F/V115G/Y59C)
HLA DRB1*0301 = HLA DRB1*0301 (Homo sapiens, UniProt P01903+P01911, A100K/A102G/A103R/A169T/F55Y/I96L/K41T/L162R/M171V/P40S/Q125H/Q178H/Q39Y/R42S/S66N/T106N/T262R/W38E/Y61H)
HLA DRB1*0301, sequence (P01903 26-254 limits assumed, other chains not shown): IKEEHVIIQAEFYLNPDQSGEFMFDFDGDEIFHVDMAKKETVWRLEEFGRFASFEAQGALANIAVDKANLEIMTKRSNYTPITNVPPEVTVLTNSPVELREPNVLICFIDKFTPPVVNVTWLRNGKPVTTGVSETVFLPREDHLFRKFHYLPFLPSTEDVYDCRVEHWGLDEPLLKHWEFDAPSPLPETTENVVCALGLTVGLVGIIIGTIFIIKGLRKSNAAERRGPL

HLA DRB1*0404 = HLA DRB1*0404 (Homo sapiens, UniProt P01903+P01911, A100R/A169T/F76Y/I96L/K127E/L162R/M171V/N62H/P40V/Q125Y/R42H/S133A/S149N/S66Y/V209L/W38E)
HLA DRB1*1302 = HLA DRB1*1302 (Homo sapiens, UniProt P01903+P01911, A100E/A169T/K41T/L162R/M171V/P40S/Q125H/Q178H/Q39Y/Q99D/R42S/S66N/T262R/V115G/W38E/Y61H)
HLA DRB1*1302, sequence (P01903 26-254 limits assumed, other chains not shown): as above

HLA DRB1*0701 = HLA DRB1*0701 (Homo sapiens, UniProt P01903+P01911, A100R/A102G/A103Q/D57E/D86V/E43K/F76Y/K127E/L162R/M171V/P40G/Q125H/Q99D/R33Q/R42Y/R54Q/S133A/S66F/T210M/V115G/Y107V/Y59L/Y89S)
HLA DRB1*0401 = HLA DRB1*0401 (Homo sapiens, UniProt P01903+P01911, A100K/A169T/F76Y/I96L/K127E/L162R/M171V/N62H/P40V/Q125Y/R42H/S133A/S149N/S66Y/V115G/V209L/W38E)
HLA DRB3*0101 = HLA DRB3*0101 (Homo sapiens, UniProt P01903+P79483)
HLA DRB1*1101 = HLA DRB1*1101 (Homo sapiens, UniProt P01903+P01911, A100R/A169T/A87E/I96F/K41T/L162R/M171V/P40S/Q125H/Q178H/Q39Y/Q99D/R42S/S66Y/T262R/V115G/W38E)
HLA DRB1*1101, sequence (P01903 26-254 limits assumed, other chains not shown): as above

Row | Compound | IC50 (HLA DRB1*0405) | IC50 (HLA DRB1*1501) | IC50 (HLA DRB1*0101) | IC50 (HLA DRB1*0301) | IC50 (HLA DRB1*0404) | IC50 (HLA DRB1*1302) | IC50 (HLA DRB1*0701) | IC50 (HLA DRB1*0401) | IC50 (HLA DRB3*0101) | IC50 (HLA DRB1*1101)
1 | CC(C)C[C@H](NC(=O)[C@H](C)NC(=O)[C@H](CO)NC(=O)[C@H](CC(=O)O)NC(=O)[C@H](CCC(=O)O)NC(=O)[C@@H]1CCCN1)C(=O)N[C@@H](CC(C)C)C(=O)N[C@@H](CCC(=O)O)C(=O)N[C@@H](CC(=O)O)C(=O)N1CCC[C@H]1C(=O)N[C@@H](C)C(=O)NCC(=O)O [30.8] | > 5 µM | > 5 µM | > 5 µM | > 5 µM | > 5 µM | > 5 µM | > 5 µM | > 5 µM | 2.05 µM | > 5 µM
2 | APAAPANPGLII [34.2] | > 5 µM | > 5 µM | 1.27 µM | > 5 µM | > 5 µM | 0.642 µM | > 5 µM | > 5 µM | > 5 µM | > 5 µM
3 | AYQQGVTVDSIG [24.2] | > 5 µM | > 5 µM | 0.471 µM | > 5 µM | > 5 µM | > 5 µM | 2.72 µM | 0.212 µM | > 5 µM | > 5 µM
4 | DPEDSALLEDPA [30.7] | > 5 µM | > 5 µM | > 5 µM | > 5 µM | > 5 µM | > 5 µM | > 5 µM | > 5 µM | 1.62 µM | > 5 µM
5 | HAPAAPANPGLI [34.1] | > 5 µM | > 5 µM | 3.55 µM | > 5 µM | > 5 µM | > 5 µM | > 5 µM | > 5 µM | > 5 µM | > 5 µM
6 | YQQGVTVDSIGM [24.3] | > 5 µM | > 5 µM | > 5 µM | > 5 µM | > 5 µM | > 5 µM | 0.389 µM | 4.41 µM | > 5 µM | > 5 µM
